Reference: publication PMC8490515, “Neuromedin B receptor stimulation of Cav3.2 T-type Ca^2+ channels in primary sensory neurons mediates peripheral pain hypersensitivity” (Theranostics, 2021)

Columns and labels:
[1] = test system: Cav3.2 (α1H); assay: Cav3.2 channel currents in HEK293 cells coexpressing NmbR; format: cell-based, human
Experimental: Standard whole-cell recordings were made at room temperature (22-23 °C) as described previously, [25]. Recording electrodes were pulled from borosilicate glass microcapillary tubes (Sutter Instruments) and had resistances from 3 to 5 MΩ when filled with internal solution. Recordings were obtained using a MultiClamp 700B amplifier (Axon Instruments). Data were digitized on a personal computer using a Digidata 1440 interface under the control of the pClamp10.2 acquisition package (Molecular Devices). Data were acquired at 20 kHz with a low-pass Bessel filter at 2-5 kHz. Series resistance was compensated to 80%. The internal solution used for T-type channel current recordings contained 110 mM CsCl, 4 mM Mg-ATP, 0.3 mM Na2-GTP, 25 mM HEPES, and 10 mM EGTA, adjusted to pH 7.4 with CsOH; 295 mOsm. The external solution used for T-type channel current recordings contained 5 mM BaCl2, 140 mM TEA-Cl, 10 mM HEPES, 0.5 mM MgCl2, 5 mM CsCl, and 5.5 mM glucose, adjusted to pH 7.35 with TEA-OH; 305 mOsm. In experiments for Kv current recordings, the extracellular solution contained 140 mM choline-Cl, 1 mM MgCl2, 0.03 mM CaCl2, 5 mM KCl, 10 mM HEPES, and 10 mM glucose, adjusted to pH 7.4 with KOH; 310 mOsm. The intracellular pipette solution contained 140 mM KCl, 1 mM MgCl2, 0.5 mM CaCl2, 3 mM Mg-ATP, 0.3 mM Na2-GTP, 10 mM HEPES, and 5 mM EGTA, adjusted to pH 7.4 with KOH; 295 mOsm.

[2] = test system: T-type channels in small TG neurons; assay: Whole-cell patch clamp of T-type channel currents (IT) in small TG neurons; format: cell-based, mouse
[3] = test system: small TG neurons; assay: TG neuronal excitability (action potential firing, rheobase, threshold); format: cell-based, mouse
Experimental: (§1) All the procedures performed in this study were carried out in accordance with NIH guidelines and were approved by the Institutional Animal Care and Use Committee of Soochow University. TG neurons were dissociated as previously described, [23]. Briefly, TGs were harvested from 8- to 10-week-old ICR mice of either sex, cut into small pieces and treated with 2 mg/mL collagenase D (Roche) for 20 min followed by 1.5 mg/mL trypsin (Sigma) at 37 °C for 15 min. Cells were dissociated via gentle trituration with fire-polished sterilized Pasteur pipettes and centrifuged through a 15% BSA gradient to remove debris and nonneuronal cells. TG neurons were resuspended in neurobasal A (Thermo Fisher) supplemented with B27 (Thermo Fisher) and transferred onto Matrigel-coated coverslips. Patch clamp recordings were conducted 2 to 6 h after plating. In shRNA-treated knockdown experiments, TG cells were replated onto coverslips 48 h after infection.
Standard whole-cell recordings were made at room temperature (22-23 °C) as described previously, [25]. Recording electrodes were pulled from borosilicate glass microcapillary tubes (Sutter Instruments) and had resistances from 3 to 5 MΩ when filled with internal solution. Recordings were obtained using a MultiClamp 700B amplifier (Axon Instruments). Data were digitized on a personal computer using a Digidata 1440 interface under the control of the pClamp10.2 acquisition package (Molecular Devices). Data were acquired at 20 kHz with a low-pass Bessel filter at 2-5 kHz. Series resistance was compensated to 80%. The internal solution used for T-type channel current recordings contained 110 mM CsCl, 4 mM Mg-ATP, 0.3 mM Na2-GTP, 25 mM HEPES, and 10 mM EGTA, adjusted to pH 7.4 with CsOH; 295 mOsm. The external solution used for T-type channel current recordings contained 5 mM BaCl2, 140 mM TEA-Cl, 10 mM HEPES, 0.5 mM MgCl2, 5 mM CsCl, and 5.5 mM glucose, adjusted to pH 7.35 with TEA-OH; 305 mOsm. In experiments for Kv current recordings, the extracellular solution contained 140 mM choline-Cl, 1 mM MgCl2, 0.03 mM CaCl2, 5 mM KCl, 10 mM HEPES, and 10 mM glucose, adjusted to pH 7.4 with KOH; 310 mOsm. The intracellular pipette solution contained 140 mM KCl, 1 mM MgCl2, 0.5 mM CaCl2, 3 mM Mg-ATP, 0.3 mM Na2-GTP, 10 mM HEPES, and 5 mM EGTA, adjusted to pH 7.4 with KOH; 295 mOsm. The two kinetically distinct Kv currents in small TG neurons were separated by the two-step voltage protocol as previously described, [26]. The external solution for Nav current clamp recordings contained 2 mM KCl, 2 mM MgCl2, 25 mM HEPES, 2 mM CaCl2, 128 mM NaCl, and 30 mM glucose, adjusted to pH 7.4 with NaOH; 305 mOsm. The internal solution contained 10 mM NaCl, 110 mM KCl, 4 mM Mg-ATP, 0.3 mM Na2-GTP, 25 mM HEPES, and 2 mM EGTA, adjusted to pH 7.3 with KOH; 295 mOsm. Nmb was applied to a patched cell by an air-pressure microinjector (Pneumatic PicoPump, model PV830, WPI).
We next determined the role of the Nmb-induced T-type channel response in regulating TG neuronal excitability. […] Furthermore, application of Nmb (100 nM) to TG neurons decreased the peak amplitude of the transient outward K^+ channel currents (A-type currents or IA) (decrease of 22.3 ± 3.9%; Figure 6C), while the sustained delayed rectifier K^+ channel currents (IDR) remained unaffected (decrease of 1.9 ± 1.6%; Figure 6C). […] To further test this hypothesis, a shorter (1 ms) current injection was applied to avoid contaminating the action potential waveform with the stimulus. Neurons were manually hyperpolarized to membrane potentials of -75 mV to maximize the number of T-type channels available for activation. With increasingly stronger current injections (+200 pA), the threshold current necessary to evoke an overshooting AP was determined for each neuron in the presence or absence of Nmb.

[4] = test system: transient outward K^+ channel (IA); assay: Transient outward A-type K+ currents (IA) in TG neurons; format: cell-based, mouse; conditions: 100 nM
Experimental: as §1
(§2) Standard whole-cell recordings were made at room temperature (22-23 °C) as described previously, [25]. Recording electrodes were pulled from borosilicate glass microcapillary tubes (Sutter Instruments) and had resistances from 3 to 5 MΩ when filled with internal solution. Recordings were obtained using a MultiClamp 700B amplifier (Axon Instruments). […]

[5] = test system: voltage-gated Na^+ channels (Nav); assay: Whole-cell voltage-gated Na+ channel currents in TG neurons; format: cell-based, mouse; conditions: 100 nM
Experimental: as §1, §2

[6] = test system: Cav3.1 (α1G); assay: Cav3.1 channel currents in HEK293 cells coexpressing NmbR; format: cell-based, human; conditions: 100 nM Nmb; -110 mV to -30 mV; n = 10
[7] = test system: Cav3.2; assay: Western blot of Cav3.2 protein in TG cells / TGs; format: cell-based, mouse; conditions: 100 nM Nmb

## CCCCCCOC(=O)[C@]1(O)C[C@@H]2O[C@@]1(C)n1c3ccccc3c3c4c(c5c6ccccc6n2c5c31)C(=O)NC4 [KT-5720]
[1]; pretreatment 1 µM KT-5720, 100 nM Nmb, n = 9
  Nmb-induced increase of Cav3.2 currents after KT-5720: 1.9 ± 4.2%
[2]; 1 µM KT-5720 pretreatment, 10 μM forskolin, n = 6
  effect on forskolin-induced IT increase: abrogated
[2]; pretreatment 1 µM KT-5720, 100 nM Nmb, n = 7
  Nmb-induced increase in IT after KT-5720: 2.8 ± 2.9%
[3]; pretreatment KT-5720 1 µM (n = 12) or NiCl2 50 μM (n = 11), 100 nM Nmb
  effect on Nmb-mediated increase in AP firing rate / hyperexcitability: blocked

## Neuromedin B [Nmb]
[4]
  decrease of peak amplitude of IA: 22.3 ± 3.9%
[5]
  effect on whole-cell Nav currents: did not affect
[1]; 100 nM Nmb, -110 mV to -30 mV, n = 9
  increase of Cav3.2 channel currents: 36.2 ± 3.1%
[1]; sigmoidal dose-response fit, read-out: EC50 for increase of Cav3.2 channel currents
  EC50: 47.6 nM
[2]; 100 nM, washout
  reversal of IT increase when Nmb removed by washing: partially reversed
[2]; 100 nM, mean ± SEM, n = 9
  increase of peak amplitude of IT by Nmb: 34.2 ± 1.9%
[2]; 100 nM, n = 8
  current-voltage relationship curve of IT: downward shifted the current-voltage relationship curve
[2]; 100 nM, n = 9
  depolarizing shift in steady-state inactivation: ~ 7.3 mV
  shift in activation properties: no significant shifts in activation properties
[2]; sigmoidal Hill equation fit, small TG neurons, read-out: EC50 for IT increase
  EC50: 45.3 nM
[2]; with 100 nM Nmb (control -47.1 ± 1.9 mV), n = 9
  Vhalf of activation: -46.3 ± 2.2 mV
[2]; with 100 nM Nmb (control -80.1 ± 2.5 mV), n = 9
  Vhalf of steady-state inactivation: -72.8 ± 1.3 mV
[6]
  increase of Cav3.1 channel currents: 0.7 ± 1.2%
[3]; 100 nM (control +0.98 nA)
  threshold current with Nmb: +0.79 nA
[3]; 100 nM, 5 mM 4-AP and 5 μM nifedipine, 1-s current injection, n = 17
  increase of action potential firing rate: 43.7 ± 3.7%
[3]; 100 nM, 1 ms current injection, -75 mV
  cells in which the threshold was significantly lowered: 15 of 19
[3]; 100 nM, n = 17
  resting membrane potential: not significantly changed
  rheobase (vs nontreated): significantly lower
[7]
  Cav3.2 protein expression in TG cells: did not affect the Cav3.2 protein expression
